Reference: ChEMBL document CHEMBL1138430, “Novel tetrahydroisoquinolines are histamine H3 antagonists and serotonin reuptake inhibitors” (Bioorg Med Chem Lett, 2007)
Activity calls are given as the source filed them.

Columns and labels:
[1] = molecular target: T1, Adenosine receptor A1 (Homo sapiens) (UniProt P30542); test: Binding affinity at adenosine A1 receptor at 1 uM
T1 sequence (whole entry): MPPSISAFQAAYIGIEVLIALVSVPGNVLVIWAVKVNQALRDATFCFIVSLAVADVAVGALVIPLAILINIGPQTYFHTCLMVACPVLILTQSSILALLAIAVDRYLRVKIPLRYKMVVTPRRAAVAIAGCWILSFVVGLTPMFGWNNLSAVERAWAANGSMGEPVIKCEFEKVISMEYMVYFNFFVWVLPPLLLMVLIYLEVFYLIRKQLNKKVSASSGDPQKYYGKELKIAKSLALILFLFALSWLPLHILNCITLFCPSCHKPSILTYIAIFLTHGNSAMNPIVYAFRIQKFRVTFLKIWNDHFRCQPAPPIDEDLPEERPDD

[2] = molecular target: T2, Adenosine receptor A3 (Homo sapiens) (UniProt P0DMS8); test: Binding affinity at adenosine A3 receptor at 1 uM
T2 sequence (whole entry): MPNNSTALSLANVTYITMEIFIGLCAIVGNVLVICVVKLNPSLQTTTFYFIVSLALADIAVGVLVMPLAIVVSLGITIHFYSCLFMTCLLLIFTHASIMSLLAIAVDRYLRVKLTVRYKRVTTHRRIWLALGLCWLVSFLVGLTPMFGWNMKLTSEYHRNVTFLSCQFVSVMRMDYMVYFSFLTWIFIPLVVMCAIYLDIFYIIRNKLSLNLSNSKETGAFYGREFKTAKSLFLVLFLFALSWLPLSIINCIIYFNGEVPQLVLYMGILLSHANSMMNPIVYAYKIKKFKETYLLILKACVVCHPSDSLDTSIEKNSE

[3] = molecular target: Beta-1 adrenergic receptor (Homo sapiens) (UniProt P08588); test: Binding affinity at adrenergic beta-1 receptor at 1 uM
Beta-1 adrenergic receptor (Homo sapiens), sequence (P08588 whole entry, looked up): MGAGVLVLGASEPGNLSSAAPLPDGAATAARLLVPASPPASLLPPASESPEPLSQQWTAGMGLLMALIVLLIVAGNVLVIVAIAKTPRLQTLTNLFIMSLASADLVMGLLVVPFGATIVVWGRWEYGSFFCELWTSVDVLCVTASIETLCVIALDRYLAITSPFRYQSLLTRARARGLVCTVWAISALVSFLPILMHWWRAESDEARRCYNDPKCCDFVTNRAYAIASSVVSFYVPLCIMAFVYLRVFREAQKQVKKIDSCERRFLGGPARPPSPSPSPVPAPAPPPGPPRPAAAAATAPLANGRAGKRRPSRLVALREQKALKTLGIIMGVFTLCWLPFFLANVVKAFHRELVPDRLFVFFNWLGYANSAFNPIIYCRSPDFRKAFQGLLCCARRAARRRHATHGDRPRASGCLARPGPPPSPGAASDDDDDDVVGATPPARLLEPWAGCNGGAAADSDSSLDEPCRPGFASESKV

Homo sapiens = species: Homo sapiens; test: Binding affinity at adrenergic alpha-2 receptor at 1 uM
[4] = molecular target: D(1A) dopamine receptor (Homo sapiens) (UniProt P21728); test: Binding affinity at dopamine D1 receptor at 1 uM
D(1A) dopamine receptor (Homo sapiens), sequence (P21728 whole entry): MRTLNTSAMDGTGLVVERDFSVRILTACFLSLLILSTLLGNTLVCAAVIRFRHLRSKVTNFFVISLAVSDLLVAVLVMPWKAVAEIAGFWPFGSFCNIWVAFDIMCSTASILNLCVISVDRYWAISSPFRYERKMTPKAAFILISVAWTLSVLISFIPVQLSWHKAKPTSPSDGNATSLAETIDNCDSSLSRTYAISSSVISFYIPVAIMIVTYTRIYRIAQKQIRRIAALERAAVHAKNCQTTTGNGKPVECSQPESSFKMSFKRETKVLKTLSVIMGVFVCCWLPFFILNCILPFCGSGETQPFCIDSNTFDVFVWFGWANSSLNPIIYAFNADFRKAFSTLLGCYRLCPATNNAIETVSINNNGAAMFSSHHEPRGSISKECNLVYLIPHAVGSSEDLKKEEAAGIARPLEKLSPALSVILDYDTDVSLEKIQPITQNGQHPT

[5] = molecular target: T3, Galanin receptor type 2 (Homo sapiens) (UniProt O43603); test: Binding affinity at galanin 2 receptor at 1 uM
T3 sequence (whole entry): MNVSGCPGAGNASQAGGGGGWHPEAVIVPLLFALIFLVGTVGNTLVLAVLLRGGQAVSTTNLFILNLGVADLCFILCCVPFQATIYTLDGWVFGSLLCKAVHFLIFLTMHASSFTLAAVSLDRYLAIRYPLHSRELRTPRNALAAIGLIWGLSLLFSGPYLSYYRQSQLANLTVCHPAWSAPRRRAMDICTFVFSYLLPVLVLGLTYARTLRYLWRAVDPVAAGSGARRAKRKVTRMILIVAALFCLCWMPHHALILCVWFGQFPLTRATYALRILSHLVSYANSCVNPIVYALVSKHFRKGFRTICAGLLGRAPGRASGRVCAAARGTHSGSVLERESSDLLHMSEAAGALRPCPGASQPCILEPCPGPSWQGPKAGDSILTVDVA

[6] = molecular target: T4, Muscarinic acetylcholine receptor M1 (Homo sapiens) (UniProt P11229); test: Binding affinity at muscarinic M1 receptor at 1 uM
T4 sequence (whole entry): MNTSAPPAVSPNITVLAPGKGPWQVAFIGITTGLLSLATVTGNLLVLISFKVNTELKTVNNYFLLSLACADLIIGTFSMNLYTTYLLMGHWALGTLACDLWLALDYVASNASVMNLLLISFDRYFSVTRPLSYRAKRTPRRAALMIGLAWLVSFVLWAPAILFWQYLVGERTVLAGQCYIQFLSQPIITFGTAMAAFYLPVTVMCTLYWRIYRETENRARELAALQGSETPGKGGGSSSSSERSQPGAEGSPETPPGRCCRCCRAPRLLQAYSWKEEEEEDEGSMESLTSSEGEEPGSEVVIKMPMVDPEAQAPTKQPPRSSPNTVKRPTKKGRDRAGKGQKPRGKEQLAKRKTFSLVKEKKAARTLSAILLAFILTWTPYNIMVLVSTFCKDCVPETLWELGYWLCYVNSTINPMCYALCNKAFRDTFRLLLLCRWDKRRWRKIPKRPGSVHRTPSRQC

[7] = molecular target: Neurotensin receptor type 1 (Homo sapiens) (UniProt P30989); test: Binding affinity at NT1 receptor at 1 uM
Neurotensin receptor type 1 (Homo sapiens), sequence (P30989 whole entry): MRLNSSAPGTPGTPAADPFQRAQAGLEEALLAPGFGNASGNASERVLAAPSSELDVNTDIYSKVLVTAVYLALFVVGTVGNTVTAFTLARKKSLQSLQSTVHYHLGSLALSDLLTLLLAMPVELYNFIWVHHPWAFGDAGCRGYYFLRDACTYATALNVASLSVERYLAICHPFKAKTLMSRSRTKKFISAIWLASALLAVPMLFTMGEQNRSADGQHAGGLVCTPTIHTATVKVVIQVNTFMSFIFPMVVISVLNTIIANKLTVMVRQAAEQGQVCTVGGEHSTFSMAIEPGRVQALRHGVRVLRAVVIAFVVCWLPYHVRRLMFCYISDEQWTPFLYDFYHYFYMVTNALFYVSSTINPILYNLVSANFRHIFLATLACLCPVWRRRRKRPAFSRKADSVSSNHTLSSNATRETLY

[8] = molecular target: T5, Substance-K receptor (Homo sapiens) (UniProt P21452); test: Binding affinity at NK2 receptor at 1 uM
T5 sequence (whole entry): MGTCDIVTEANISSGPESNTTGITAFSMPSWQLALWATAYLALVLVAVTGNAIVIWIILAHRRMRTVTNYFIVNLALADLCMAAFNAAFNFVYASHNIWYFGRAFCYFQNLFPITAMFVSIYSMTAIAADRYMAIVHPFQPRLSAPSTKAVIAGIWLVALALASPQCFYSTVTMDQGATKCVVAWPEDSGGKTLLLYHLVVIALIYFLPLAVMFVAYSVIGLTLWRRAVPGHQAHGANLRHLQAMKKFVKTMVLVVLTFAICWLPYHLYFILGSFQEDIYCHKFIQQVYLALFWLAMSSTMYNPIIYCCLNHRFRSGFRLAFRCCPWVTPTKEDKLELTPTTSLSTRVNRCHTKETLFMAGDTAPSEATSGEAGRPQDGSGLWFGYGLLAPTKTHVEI

[9] = molecular target: Kappa-type opioid receptor (Homo sapiens) (UniProt P41145); test: Binding affinity at KOP receptor at 1 uM
Kappa-type opioid receptor (Homo sapiens), sequence (P41145 whole entry): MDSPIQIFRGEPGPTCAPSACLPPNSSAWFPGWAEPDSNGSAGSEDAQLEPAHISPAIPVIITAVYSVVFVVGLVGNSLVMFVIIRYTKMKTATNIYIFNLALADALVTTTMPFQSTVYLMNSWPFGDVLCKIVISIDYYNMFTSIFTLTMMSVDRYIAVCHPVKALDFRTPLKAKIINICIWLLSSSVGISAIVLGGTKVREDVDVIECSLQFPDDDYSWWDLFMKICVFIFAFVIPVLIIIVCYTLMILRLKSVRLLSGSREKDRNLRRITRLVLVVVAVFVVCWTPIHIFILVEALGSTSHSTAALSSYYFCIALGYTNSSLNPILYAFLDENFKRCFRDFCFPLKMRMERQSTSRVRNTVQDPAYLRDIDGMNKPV

[10] = molecular target: T6, 5-hydroxytryptamine receptor 3A (Homo sapiens) (UniProt P46098); test: Binding affinity at 5HT3 receptor at 1 uM
T6 sequence (whole entry): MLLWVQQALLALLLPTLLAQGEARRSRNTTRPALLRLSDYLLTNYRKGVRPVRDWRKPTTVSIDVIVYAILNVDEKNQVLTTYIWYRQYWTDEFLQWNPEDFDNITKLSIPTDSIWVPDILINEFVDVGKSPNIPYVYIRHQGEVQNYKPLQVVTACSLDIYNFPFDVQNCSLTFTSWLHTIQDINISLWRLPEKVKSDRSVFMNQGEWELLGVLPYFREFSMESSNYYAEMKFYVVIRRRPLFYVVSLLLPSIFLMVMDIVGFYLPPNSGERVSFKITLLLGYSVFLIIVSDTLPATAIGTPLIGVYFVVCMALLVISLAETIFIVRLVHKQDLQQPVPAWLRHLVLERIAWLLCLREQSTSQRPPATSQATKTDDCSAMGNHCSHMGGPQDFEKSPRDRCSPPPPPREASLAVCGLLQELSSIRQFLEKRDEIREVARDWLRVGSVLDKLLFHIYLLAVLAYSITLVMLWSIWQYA

[11] = molecular target: 5-hydroxytryptamine receptor 5A (Homo sapiens) (UniProt P47898); test: Binding affinity at 5HT5A receptor at 1 uM
5-hydroxytryptamine receptor 5A (Homo sapiens), sequence (P47898 whole entry): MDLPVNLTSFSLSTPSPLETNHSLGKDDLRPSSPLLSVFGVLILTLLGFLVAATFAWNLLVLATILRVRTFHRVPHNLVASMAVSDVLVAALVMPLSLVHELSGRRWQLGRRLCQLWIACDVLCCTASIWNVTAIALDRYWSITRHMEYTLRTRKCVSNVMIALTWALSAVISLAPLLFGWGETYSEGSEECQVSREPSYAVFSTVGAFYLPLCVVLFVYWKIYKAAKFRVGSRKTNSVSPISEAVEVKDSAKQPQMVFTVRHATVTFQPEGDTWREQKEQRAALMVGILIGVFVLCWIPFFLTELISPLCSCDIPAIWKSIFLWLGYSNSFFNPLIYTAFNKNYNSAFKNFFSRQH

[12] = molecular target: Vasopressin V1a receptor (Homo sapiens) (UniProt P37288); test: Binding affinity at vasopressin V1a receptor at 1 uM
Vasopressin V1a receptor (Homo sapiens), sequence (P37288 whole entry, looked up): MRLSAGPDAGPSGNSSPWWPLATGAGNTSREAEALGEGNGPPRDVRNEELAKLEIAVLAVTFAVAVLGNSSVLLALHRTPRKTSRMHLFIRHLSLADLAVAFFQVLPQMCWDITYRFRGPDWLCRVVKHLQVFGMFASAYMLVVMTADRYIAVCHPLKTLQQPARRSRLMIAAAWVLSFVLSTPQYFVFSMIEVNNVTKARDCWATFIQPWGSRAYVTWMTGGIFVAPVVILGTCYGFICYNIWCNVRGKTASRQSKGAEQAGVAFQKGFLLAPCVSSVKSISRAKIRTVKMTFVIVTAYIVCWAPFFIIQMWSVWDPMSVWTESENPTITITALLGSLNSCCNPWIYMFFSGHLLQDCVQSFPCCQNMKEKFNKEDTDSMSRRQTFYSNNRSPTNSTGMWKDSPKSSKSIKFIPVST

Measured: Activity

COc1ccc([C@@H]2CN(C)Cc3cc(OCCCN4CCOC[C@@H]4C)ccc32)cc1
inactive: all assays above

CSc1ccc(C2CN(C)Cc3cc(OCCCN4CCOCC4)ccc32)cc1 (racemic)
inactive: all assays above

CSc1ccc(C2CN(C)Cc3cc(OCCCN4CCC(F)CC4)ccc32)cc1 (racemic)
inactive: all assays above
